Read-outs that look alike come from different tables or passages of the source.
Test system: Mycosphaerella graminicola; Anamorph: Septoria tritici; Bayer Code SEPTTR
Test: Leaf blotch of wheat, foliar fungicide treatment, one day protectant (1DP) or three day curative (3DC)
Assay type: in vivo, Septoria tritici on wheat plants (variety Yuma)
Conditions: Zymoseptoria tritici; for pest or weed control at 200 ppm / pest or weed control at 50 ppm: % disease control rating
[1] = 24 h, one day protectant (1DP), 25 ppm, rating of percent disease control, read-out: SETTTR 1DP 25 ppm
[2] = 24 h, one day protectant (1DP), rating of percent disease control, read-out: SEPTTR 1DP 100 ppm
[3] = 72 h, three day curative (3DC), 25 ppm, rating of percent disease control, read-out: SEPTTR 3DC 25 ppm
[4] = 72 h, three day curative (3DC), rating of percent disease control, read-out: SEPTTR 3DC 100 ppm
[5] = 24 h, one day protectant (1DP), 25 ppm, percent disease control rating, read-out: SETTTR 1DP 25 ppm
[6] = 24 h, one day protectant (1DP), percent disease control rating, read-out: SEPTTR 1DP 100 ppm
[7] = 72 h, three day curative (3DC), 25 ppm, percent disease control rating, read-out: SEPTTR 3DC 25 ppm
[8] = 72 h, three day curative (3DC), percent disease control rating, read-out: SEPTTR 3DC 100 ppm
[9] = 24 h, one day protectant, 25 ppm, rating of percent disease control, read-out: SETTTR 1DP 25 ppm
[10] = 24 h, one day protectant, rating of percent disease control, read-out: SEPTTR 1DP 100 ppm
[11] = 72 h, three day curative, 25 ppm, rating of percent disease control, read-out: SEPTTR 3DC 25 ppm
[12] = 72 h, three day curative, rating of percent disease control, read-out: SEPTTR 3DC 100 ppm
[13] = 24 h, one day protectant (1DP), 25 ppm (first 1DP column), percent control rating, read-out: SETTTR 1DP 25 ppm
[14] = 24 h, one day protectant (1DP), 25 ppm as printed (second 1DP column), percent control rating, read-out: SETTTR 1DP 25 ppm
[15] = 72 h, three day curative (3DC), 25 ppm, percent control rating, read-out: SEPTTR 3DC 25 ppm
[16] = 72 h, three day curative (3DC), percent control rating, read-out: SEPTTR 3DC 100 ppm

SMILES | pest or weed control at 25 ppm [1] | pest or weed control at 100 ppm [2] | pest or weed control at 25 ppm [3] | pest or weed control at 100 ppm [4] | also measured
CN(C)/C=N/c1nc(OC(=O)OCc2ccccc2Cl)ncc1F [Compound 789] | 76 to 100% | 76 to 100% | 76 to 100% | 76 to 100% | 
COCCCOc1ncc(F)c(NC(=O)Nc2ccsc2)n1 [Compound 159] |  |  |  |  | pest or weed control at 25 ppm [5]: 0 to 25%; pest or weed control at 100 ppm [6]: 0 to 25%; pest or weed control at 25 ppm [7]: 26 to 50%; pest or weed control at 100 ppm [8]: 0 to 25%
COc1ccc(COc2ncc(F)c(N)n2)cc1F [Compound 590] |  |  |  |  | pest or weed control at 25 ppm [9]: 76 to 100%; pest or weed control at 100 ppm [10]: 76 to 100%; pest or weed control at 25 ppm [11]: 76 to 100%; pest or weed control at 100 ppm [12]: 76 to 100%
NNc1nc(OCc2ccc(F)cc2)ncc1F [Compound 473] | 26 to 50% | 76 to 100% | 26 to 50% | 76 to 100% | 
COc1ccccc1COc1ncc(F)c(NC2CC2)n1 [Compound 821] |  |  |  |  | pest or weed control at 200 ppm (24 h, one day protectant): 76 to 100%
COc1cccc(COc2ncc(F)c(N/N=C/c3ncc[nH]3)n2)c1 [Compound 532] | 26 to 50% | 51 to 75% | 0 to 25% | 26 to 50% | 
Fc1cnc(OCc2ccccc2)nc1-n1ccnc1 [Compound 115] |  |  |  |  | pest or weed control at 25 ppm [5]: 76 to 100%; pest or weed control at 100 ppm [6]: 76 to 100%; pest or weed control at 25 ppm [7]: 76 to 100%; pest or weed control at 100 ppm [8]: 76 to 100%
CCOC(=O)Nc1nc(OCc2cccc(C#N)c2)ncc1F [Compound 314] | 76 to 100% | 76 to 100% | 76 to 100% | 76 to 100% | 
COc1cccc(COc2ncc(F)c(N(N)C3CCCCC3)n2)c1 [Compound 111] |  |  |  |  | pest or weed control at 25 ppm [5]: 0 to 25%; pest or weed control at 100 ppm [6]: 0 to 25%; pest or weed control at 25 ppm [7]: 0 to 25%; pest or weed control at 100 ppm [8]: 0 to 25%
CC(=O)Nc1nc(OCc2ccc(C(F)(F)F)cc2)ncc1F [Compound 947] |  |  |  |  | pest or weed control at 50 ppm (24 h, one day protectant): 76 to 100%; pest or weed control at 200 ppm (24 h, one day protectant): 76 to 100%
COc1nn(C)c(C(F)(F)F)c1S(=O)(=O)Nc1nc(O)ncc1F [Compound 1106] |  |  |  |  | pest or weed control at 25 ppm [13]: 0 to 25%; pest or weed control at 25 ppm [14]: 0 to 25%; pest or weed control at 25 ppm [15]: 0 to 25%; pest or weed control at 100 ppm [16]: 0 to 25%
Nc1nc(OCc2ccc3c(c2)OCO3)ncc1F [Compound 178] |  |  |  |  | pest or weed control at 25 ppm [5]: 76 to 100%; pest or weed control at 100 ppm [6]: 76 to 100%; pest or weed control at 25 ppm [7]: 76 to 100%; pest or weed control at 100 ppm [8]: 76 to 100%
CN(C)/C=N/c1nc(OC(=O)C2CCCCC2)ncc1F [Compound 247] | 76 to 100% | 76 to 100% | 76 to 100% | 76 to 100% | 
O=[N+]([O-])c1ccccc1SNc1nc(OCc2ccc(F)c(C(F)(F)F)c2)ncc1F [Compound 527] | 51 to 75% | 76 to 100% | 0 to 25% | 0 to 25% | 
COc1ccccc1COc1ncc(F)c(NC(=O)OCc2ccccc2)n1 [Compound 415] | 51 to 75% | 76 to 100% | 76 to 100% | 76 to 100% | 
Cn1ncc(C(=O)Nc2nc(O)ncc2F)c1Cl [Compound 978] |  |  |  |  | pest or weed control at 25 ppm [13]: 0 to 25%; pest or weed control at 25 ppm [14]: 0 to 25%; pest or weed control at 25 ppm [15]: 0 to 25%; pest or weed control at 100 ppm [16]: 0 to 25%
CC(Oc1ncc(F)c(N)n1)c1cccc(I)c1 (stereo not shown) [Compound 798] | 76 to 100% | 76 to 100% | 76 to 100% | 76 to 100% | 
CN1CCCC/C1=N\c1nc(OCc2ccn(C)n2)ncc1F [Compound 751] | 51 to 75% | 76 to 100% | 26 to 50% | 76 to 100% | 
CCC(C)/C(C)=N/Nc1nc(OCc2ccc(C)cc2)ncc1F (stereo not shown) [Compound 533] | 51 to 75% | 51 to 75% | 0 to 25% | 26 to 50% | 
COc1ccc(OC(=O)Oc2ncc(F)c(/N=C/N(C)C)n2)cc1 [Compound 523] | 76 to 100% | 76 to 100% | 76 to 100% | 76 to 100% | 

SMILES | pest or weed control at 25 ppm [1] | pest or weed control at 100 ppm [2] | pest or weed control at 25 ppm [3] | pest or weed control at 100 ppm [4] | also measured
C/C(=N\Oc1ncc(F)c(N)n1)C(F)(F)F [Compound 1114] |  |  |  |  | pest or weed control at 25 ppm [13]: 0 to 25%; pest or weed control at 25 ppm [14]: 0 to 25%; pest or weed control at 25 ppm [15]: 26 to 50%; pest or weed control at 100 ppm [16]: 76 to 100%
Cc1ccc(COc2ncc(F)c(N(C)N)n2)cc1 [Compound 253] | 26 to 50% | 76 to 100% | 51 to 75% | 76 to 100% | 
CSc1ccc(COc2ncc(F)c(N)n2)cc1 [Compound 673] |  |  |  |  | pest or weed control at 25 ppm [9]: 76 to 100%; pest or weed control at 100 ppm [10]: 76 to 100%; pest or weed control at 25 ppm [11]: 76 to 100%; pest or weed control at 100 ppm [12]: 76 to 100%
Cc1ccc(COc2ncc(F)c(NCc3cccs3)n2)cc1 [Compound 949] |  |  |  |  | pest or weed control at 50 ppm (24 h, one day protectant): 51 to 75%; pest or weed control at 200 ppm (24 h, one day protectant): 76 to 100%
Fc1cnc(OCc2cccs2)nc1NCc1cccs1 [Compound 831] |  |  |  |  | pest or weed control at 50 ppm (24 h, one day protectant): 51 to 75%; pest or weed control at 200 ppm (24 h, one day protectant): 76 to 100%
Fc1ccccc1CNc1nc(OCc2cccs2)ncc1F [Compound 168] |  |  |  |  | pest or weed control at 25 ppm [5]: 0 to 25%; pest or weed control at 100 ppm [6]: 26 to 50%; pest or weed control at 25 ppm [7]: 0 to 25%; pest or weed control at 100 ppm [8]: 26 to 50%
O=C(Nc1nc(OCc2ccc(F)cc2)ncc1F)OCc1ccccc1 [Compound 220] | 76 to 100% | 76 to 100% | 76 to 100% | 76 to 100% | 
COc1ccc(COc2ncc(F)c(/N=C/N3CCOCC3)n2)cc1F [Compound 241] | 76 to 100% | 76 to 100% | 76 to 100% | 51 to 75% | 
O=S(=O)(Nc1nc(O)ncc1F)c1ccccc1 [Compound 956, N-(5-Fluoro-2-hydroxypyrimidin-4-yl)benzenesulfonamide] |  |  |  |  | pest or weed control at 25 ppm [13]: 0 to 25%; pest or weed control at 25 ppm [14]: 0 to 25%; pest or weed control at 25 ppm [15]: 0 to 25%; pest or weed control at 100 ppm [16]: 0 to 25%
Fc1cnc(OCc2ccc(Cl)c(Cl)c2)nc1NC1CC1 [Compound 909] |  |  |  |  | pest or weed control at 200 ppm (24 h, one day protectant): 76 to 100%
Cc1ccc(COc2ncc(F)c(NS(=O)(=O)c3ccc(C)cc3)n2)cc1 [Compound 955, N-(5-Fluoro-2-(4-methylbenzyloxy)pyrimidin-4-yl)-4-methylbenzenesulfonamide] |  |  |  |  | pest or weed control at 25 ppm [13]: 0 to 25%; pest or weed control at 25 ppm [14]: 0 to 25%; pest or weed control at 25 ppm [15]: 0 to 25%; pest or weed control at 100 ppm [16]: 0 to 25%
O=C(Nc1nc(O)ncc1F)c1ccc(Cl)nc1 [Compound 965] |  |  |  |  | pest or weed control at 25 ppm [13]: 26 to 50%; pest or weed control at 25 ppm [14]: 76 to 100%; pest or weed control at 25 ppm [15]: 26 to 50%; pest or weed control at 100 ppm [16]: 26 to 50%
COc1cccc(COc2ncc(F)c(N)n2)c1F [Compound 794] | 76 to 100% | 76 to 100% | 76 to 100% | 76 to 100% | 
CN1CCCC/C1=N\c1nc(OCc2cccc(C#N)c2)ncc1F [Compound 261] | 51 to 75% | 76 to 100% | 51 to 75% | 76 to 100% | 
Cc1ccc(COc2ncc(F)c(/N=C/N3CCOCC3)n2)cc1 [Compound 402] | 76 to 100% | 76 to 100% | 76 to 100% | 76 to 100% | 
O=C(NCc1ccccc1F)Nc1nc(OCc2cccc(F)c2)ncc1F [Compound 98] |  |  |  |  | pest or weed control at 25 ppm [5]: 0 to 25%; pest or weed control at 100 ppm [6]: 0 to 25%; pest or weed control at 25 ppm [7]: 0 to 25%; pest or weed control at 100 ppm [8]: 0 to 25%
Cc1ccc(COc2ncc(F)c(NNc3ccccc3)n2)cc1 [Compound 766] | 0 to 25% | 51 to 75% | 0 to 25% | 26 to 50% | 
N#Cc1cccc(COc2ncc(F)c(NC(=O)Nc3ccccc3F)n2)c1 [Compound 142] |  |  |  |  | pest or weed control at 25 ppm [5]: 0 to 25%; pest or weed control at 100 ppm [6]: 0 to 25%; pest or weed control at 25 ppm [7]: 0 to 25%; pest or weed control at 100 ppm [8]: 0 to 25%
COc1ncc(F)c(N(O)C(C)C)n1 [Compound 1067] |  |  |  |  | pest or weed control at 25 ppm [13]: 0 to 25%; pest or weed control at 25 ppm [14]: 0 to 25%; pest or weed control at 25 ppm [15]: 0 to 25%; pest or weed control at 100 ppm [16]: 0 to 25%
Nc1nc(OC(=O)c2snc(Cl)c2Cl)ncc1F [Compound 428] | 51 to 75% | 51 to 75% | 26 to 50% | 76 to 100% | 

Reference: patent US9204653B2, “5-fluoro pyrimidine derivatives” (DOW AGROSCIENCES LLC, priority 2008, dated 2015)
